Source: PubChem BioAssay AID1996
In brackets after ≈: the same amount, converted by molar mass.

conditions: buffer; pH 7.4; 200.0 µM

O=C(CCn1c(=S)oc2ccccc21)NCCC1=CCCCC1 and CC(=O)c1cccc(NC(=O)CCn2c(=S)oc3ccccc32)c1 are the same in solubility kinetic: 0.8 µg/mL (≈ 2.42 µM) for the first, 0.8 µg/mL (≈ 2.35 µM) for the second.

Going from Cc1ccc(Nc2nc(Cl)nc(NC(C)(C)C)n2)cc1 to Cc1ccc(Nc2ncc3c(n2)CC(C)CC3=O)c(C)c1 (centres undefined), the solubility kinetic rises from 3.8 µg/mL (≈ 13 µM) to greater than 42.2 µg/mL.

Going from COc1ccc(-c2csc(NC(=O)Cc3ccccc3)n2)cc1OC to COc1cc(/C=C2\N=C(c3ccccc3)OC2=O)ccc1OC(C)=O, the solubility kinetic rises from 0.7 µg/mL (≈ 1.97 µM) to greater than 50.6 µg/mL.

First: COc1ccccc1NC(=S)NCc1ccc(F)cc1
Second: Cc1ccccc1NCCC(=O)Nc1ccc(F)cc1
The solubility kinetic of the first is lower: 34 µg/mL (≈ 117 µM) for the first, greater than 40.8 µg/mL for the second.

CC(C)(C)c1ccc2c(c1)N(CC(=O)N1CCCC1)C(=O)CO2 and CC(C)(C)C(=O)Nc1ccc(S(=O)(=O)N2CCCC2)cc1 cannot be ordered by solubility kinetic: greater than 47.5 µg/mL for the first, greater than 46.6 µg/mL for the second.

Cc1nc2ccccc2c2c1C(=O)N(c1cccc(C(=O)O)c1)C2=O and O=C(O)c1cccc(NC(=S)NCc2ccccc2)c1 cannot be ordered by solubility kinetic: greater than 49.8 µg/mL for the first, greater than 43 µg/mL for the second.

CCCc1cc(C(=O)NC(C)C2CCCO2)cs1 (centres undefined) and CC(C)C1CC(CCN)(c2ccccc2)CCO1.O=C(O)C(=O)O (centres undefined) cannot be ordered by solubility kinetic: greater than 40.1 µg/mL for the first, greater than 50.6 µg/mL for the second.

Cc1noc(C)c1C(=O)OCC(=O)Nc1ncc(Cl)c(C)c1Cl and O=C(COC(=O)c1ccc[n+]([O-])c1)Nc1cc([N+](=O)[O-])ccc1Cl cannot be ordered by solubility kinetic: greater than 53.7 µg/mL for the first, greater than 52.8 µg/mL for the second.

COC(=O)c1ccc(CNC(=O)CCC(=O)N2CCOCC2)cc1 and COc1ccc(C(=O)NCC(=O)OCC(=O)NC23CC4CC(CC(C4)C2)C3)cc1 cannot be ordered by solubility kinetic: greater than 50.2 µg/mL for the first, greater than 60.1 µg/mL for the second.

Compared with Cc1c(C(=O)N2CCN(C)CC2)oc2ccc(Br)cc12, Cc1cccc(N2CCN(Cc3ccc4c(c3)OCO4)CC2)c1C is lower in solubility kinetic: greater than 50.6 µg/mL for the first, 4 µg/mL (≈ 12.3 µM) for the second.

CSc1ccccc1C(=O)OCC(=O)N1CCCC1=O and CC(Oc1ccc(Br)cc1)C(=O)NCCCN1CCCC1=O (centres undefined) cannot be ordered by solubility kinetic: greater than 44 µg/mL for the first, greater than 55.4 µg/mL for the second.

First: COc1cccc(C(=O)Nc2cc(C)on2)c1OC
Second: COC(=O)c1cnc(Nc2cc(C)ccc2OC)c2ccccc12
The solubility kinetic of the first is 49-fold higher: 34 µg/mL (≈ 130 µM) for the first, 0.7 µg/mL (≈ 2.17 µM) for the second.

CC(C)(C)NC(=O)CSc1nc(N)cc(=O)[nH]1 and CC(C)(C)C(=O)Nc1cccc(S(=O)(=O)NC2=NCCC2)c1 cannot be ordered by solubility kinetic: greater than 38.4 µg/mL for the first, greater than 48.5 µg/mL for the second.

First: Cc1ccc(Nc2cc(=O)[nH]c(=O)[nH]2)cc1C
Second: CC(=O)c1cccc(Nc2nc(-c3sc(C)nc3C)cs2)c1
The solubility kinetic of the first is 18-fold higher: 18.2 µg/mL (≈ 78.7 µM) for the first, 1 µg/mL (≈ 3.04 µM) for the second.

Compared with O=[N+]([O-])c1ccc(S(=O)(=O)Nc2ncccn2)cc1, O=C(Cc1ccc([N+](=O)[O-])cc1)Nc1nccs1 is lower in solubility kinetic: greater than 42 µg/mL for the first, 4.8 µg/mL (≈ 18.2 µM) for the second.

First: O=C(OCC(=O)c1c[nH]c2ccccc12)c1cncc(Br)c1
Second: O=C(OC(C(=O)c1c[nH]c2ccccc12)c1ccccc1)c1cnccn1 (centres undefined)
The solubility kinetic of the first is 6.3-fold lower: 7.5 µg/mL (≈ 20.9 µM) for the first, 47 µg/mL (≈ 132 µM) for the second.

First: COc1ccc(C)cc1NC(=O)CN1CCCC1c1ccc2c(c1)OCCCO2 (centres undefined)
Second: COc1cccc(/C=C/C(=O)OCC(=O)NCc2ccc3c(c2)OCO3)c1
The solubility kinetic of the first is 4.1-fold higher: 13.6 µg/mL (≈ 34.3 µM) for the first, 3.3 µg/mL (≈ 8.93 µM) for the second.

Going from CNC(=O)COc1ccc(Cl)c2cccnc12 to COc1ccc(NS(=O)(=O)c2cn(C)cn2)cc1Cl, the solubility kinetic falls from greater than 37.6 µg/mL to 17 µg/mL (≈ 56.3 µM).

Going from Cc1ccc2cc(NC(=O)c3ccccc3C)ccc2n1 to Cc1cccc(NC(=O)Nc2ccccc2)n1, the solubility kinetic falls from 37.4 µg/mL (≈ 135 µM) to 2.5 µg/mL (≈ 11 µM) (15-fold).

Brc1cccc(-c2cnco2)c1 and Cc1ccc(NC(=O)c2cnccn2)c(Br)c1 are within 1.5-fold of each other in solubility kinetic: 4 µg/mL (≈ 17.9 µM) for the first, 4.2 µg/mL (≈ 14.4 µM) for the second.

Going from COc1cccc(C(=O)NC2CC3CCC(C2)N3Cc2ccccc2)c1 (centres undefined) to CC1(C)C(=S)N(Cc2ccccc2)c2ccccc21, the solubility kinetic falls from 52.2 µg/mL (≈ 149 µM) to less than 0.6 µg/mL.

Compared with O=C(NC(O)C(=O)c1ccccc1)c1ccccn1 (centres undefined), CC(C)C(OC(=O)c1cccs1)C(=O)NCc1ccccc1 (centres undefined) is lower in solubility kinetic: greater than 38.4 µg/mL for the first, 29.4 µg/mL (≈ 92.6 µM) for the second.

First: N#Cc1nc(-c2ccc(F)cc2)oc1NCc1ccco1
Second: O=C(O)Cc1sc(NCc2ccco2)nc1-c1ccccc1
The solubility kinetic of the first is 43-fold lower: 1.1 µg/mL (≈ 3.88 µM) for the first, 46.8 µg/mL (≈ 149 µM) for the second.

First: COCCNC(=O)c1oc2ccc3c(c2c1C)C(O)CC(C)(C)O3 (centres undefined)
Second: COc1ccc(C2C(C(C)=O)=C(O)C(=O)N2c2ccc(F)cc2)cc1 (centres undefined)
The solubility kinetic of the first is higher: greater than 50 µg/mL for the first, 48.5 µg/mL (≈ 142 µM) for the second.

Going from COC(=O)C1=C(C)N(c2ccccc2)/C(=C/c2ccco2)C1=O to NS(=O)(=O)c1cccc(NC(=O)CSc2nnc(-c3ccccc3)o2)c1, the solubility kinetic rises from 3.3 µg/mL (≈ 10.7 µM) to greater than 58.6 µg/mL.

First: O=[N+]([O-])C1=CC=C2C(=NC3(CCCCC3)N2O)C1=NC1CCCCC1
Second: O=C(c1ccc2c(c1)OCO2)C1CCCN(CC2CCCCC2)C1 (centres undefined)
The solubility kinetic of the first is lower: 24.6 µg/mL (≈ 71.4 µM) for the first, greater than 49.4 µg/mL for the second.

First: COc1ccc(C(C)=NNc2ccc([N+](=O)[O-])cc2S(=O)(=O)Nc2ccccc2C(=O)O)c(OC)c1
Second: CN(c1ccccc1)S(=O)(=O)c1cccc(C(=O)OCC(=O)Nc2ccc(C(N)=O)cc2)c1
The solubility kinetic of the first is higher: greater than 77.2 µg/mL for the first, 9.9 µg/mL (≈ 21.2 µM) for the second.

Going from CCOC(=O)C1CCN(C(=O)Nc2ccc(C)c(Cl)c2)CC1 to COC(=O)N1CCN(c2ccc(C)cc2)C(C)C1 (centres undefined), the solubility kinetic rises from 6.9 µg/mL (≈ 21.2 µM) to greater than 37.2 µg/mL.

First: C=CCn1c(P(C)(=O)[O-])nc2ccccc21.[K+]
Second: O=C(Nc1ccccc1)Nc1sccc1-c1nc2ccccc2s1
The solubility kinetic of the first is higher: greater than 41.1 µg/mL for the first, 3.8 µg/mL (≈ 10.8 µM) for the second.

For O=C(Nc1ccccc1[N+](=O)[O-])C1(c2ccccc2)CCOCC1, the solubility kinetic was 42.3 µg/mL (≈ 130 µM).
